According to patent US10342796B2, “Acrylanilide derivative, preparation method, and applications thereof in pharmacy” (Ancureall Pharmaceutical (Shanghai) Co., Ltd., priority 2015, dated 2019):
Read-outs that look alike come from different tables or passages of the source.

What was measured:
Experiment in all cases: Growth inhibition GI50 in vitro (CCK8/MTT, 72 h)
Format in all cases: cell-based
H2228 (EML4-ALK) = conditions: Homo sapiens, NCI-H2228, H2228, EGFR wt
SH-SY5Y (ALK F1174L) = conditions: Homo sapiens, EGFR wt
Protocol: Neuroblastoma cell line SH-SY5Y (ALK F1174L positive) (Shanghai Cell Bank of Chinese Academy of Sciences) was cultured with MEM complete medium (supplement with 10% FBS, 1% NEAA, 1% double-antibiotics and 1 mM of sodium pyruvate).
(§1) The suspension cells were collected by centrifugation. The supernatant was discard and the cell pellet was resuspended and counted. Different cell concentrations (5˜10×10^4 cells/mL) were prepared according to the growth cycle of each cell line and then seeded on a 96-well plate (Corning), 100 μL/well. The cells were incubated over night at 37° C., 5% CO2. The compounds were added to the cells on the second day with 2 wells in parallel. The final concentration of organic solvent shall not exceed 1%. The cells were continually incubated for 72 h, and then subjected to MTT assay.
(§2) The present compounds and the reference compounds were dissolved with DMSO (Sigma), respectively. […] The storage concentration of compounds was 10 mM and kept at −20° C. They were diluted by 2 times or 10 times with serial dilution before using.
(§3) Dojindo CCK8 reagent kit was used as MTT assay. […] FC meter was used as microplate reader.
(§4) Adherent cell culture medium was discard and immediately replaced with fresh prepared medium which contains 10% CCK8 reagent (100 μL/well). For the suspension cells, CCK8 was directly added to 10% of the final concentration. The cells were continually incubated for 1˜4 h. When the color of control wells turned to dark yellow, the absorption value was measured at OD450 nm. The cell growth rate was calculated according to the following formula: cell growth rate (%)=100*(T−T0)/(C−T0), T=optical density of drug treatment cell well—optical density of blank control well; T0=optical density of cell well before drug treatment—optical density of blank control well; C=optical density of cell well of solvent control group—optical density of blank control well. […] The experiment was independently repeated 1˜3 times, and subject to biological statistical analysis.
(§5) Growth inhibition assay was conducted in the cell lines shown Table 14 with the different oncogene mutations. Each compound started at 1000 nM as an initial concentration and was diluted by 2 times with serial dilution to 0.03 nM.

[1] = test system: HCT116 (EGFR wt, Kras G13D); conditions: Homo sapiens, HCT-116
Protocol: as §1, §2, §3, §4, §5

SNU-16 (FGFR2 amp) = conditions: Homo sapiens, SNU-16, EGFR wt
Protocol: (§6) Human NSCLC cell line NCI-H1581(ATCC) contains FGFR1 gene amplification and high expression. Human gastric cancer cell line SNU-16(ATCC) contains FGFR2 gene amplification and high expression. They were cultured with 1×RPMI1640 complete medium (10% FBS), respectively.
as §1, §2, §3, §4, §5

H1581 (FGFR1 amp) = conditions: Homo sapiens, NCI-H1581, H1581, EGFR wt
Protocol: as §6, §1, §2, §3, §4, §5

ZR-75-30 (Her2 amp) = conditions: Homo sapiens, ZR-75-30, EGFR wt
H2170 (Her2 amp) = conditions: Homo sapiens, NCI-H2170, H2170, EGFR wt
HCC1954 (Her2 amp) = conditions: Homo sapiens, HCC1954, EGFR wt
[2] = test system: NCI-H1781 (HER2 exon 20 G776VC mutation); conditions: Homo sapiens
Kasumi-1 (Kit N822K) = conditions: Homo sapiens
Protocol: Kasumi-1 is a leukemia cell line positively expressing c-Kit N822K mutant Abnormal variation of c-Kit often appears in cancer patients. Kasumi-1 cell line was cultured with 1×RPMI1640 complete medium (supplement with 10% FBS).
as §1, §2, §3, §4, §5

[3] = HCT116, EGFR wt, Kras G13D, read-out: GI50
[4] = NCI-H1781, Table 16, 1000 nM to 0.03 nM serial dilution, read-out: GI50 H1781 (HER2 G776VC)

GI50 (H2228 (EML4-ALK)) [µM]	GI50 (SH-SY5Y (ALK F1174L)) [µM]	GI50 (SNU-16 (FGFR2 amp)) [µM]	GI50 (H1581 (FGFR1 amp)) [µM]	GI50 (H2170 (Her2 amp)) [µM]	GI50 (HCC1954 (Her2 amp)) [µM]	GI50 [1, 3] [µM]	GI50 [2, 4] [µM]	SMILES	GI50 [1] [µM]	GI50 (ZR-75-30 (Her2 amp)) [µM]	GI50 ([2]; NCI-H1781, read-out: GI50 H1781 (HER2 G776VC)) [µM]	GI50 (Kasumi-1 (Kit N822K)) [µM]
> 0.5		> 1	> 1	0.0068	0.0375	> 1		C=CC(=O)Nc1cc(Nc2ncnc(Nc3cccc(Br)c3)n2)c(OC)cc1N1CCC(N2CCCC2)CC1 [Compound 118]		0.0026		< 0.1
> 0.5	> 1	> 1	> 1	0.0195	0.312	> 1		C=CC(=O)Nc1cc(Nc2nccc(Nc3ccc(OCc4ccccn4)c(Cl)c3)n2)c(OC)cc1N(C)CCN(C)C [Compound 18, N-(5-(4-(3-chloro-4-(pyridin-2-methoxyl)phenylamino)pyrimidin-2-ylamino)-2-((2-(dimethylamino)ethyl)(methyl)amino)-4-methoxyl-phenyl)-acrylamide]		0.0021		> 1
> 0.5	> 1	> 1	> 1	0.0146	0.312	> 1		C=CC(=O)Nc1cc(Nc2ncc(Cl)c(Nc3ccc(OCc4ccccn4)c(Cl)c3)n2)c(OC)cc1N(C)CCN(C)C [Compound 19, N-(5-(5-chloro-4-(3-chloro-4-(pyridin-2-methoxyl)phenylamino)-pyrimidin-2-ylamino)-2-((2-(dimethylamino)ethyl)(methyl)amino)-4-methoxyl-phenyl)-acrylamide]		0.0021		> 1
							0.00192	C=CC(=O)Nc1cc(Nc2nccc(-n3ccc4c(OC)cccc43)n2)c(OC)cc1N(C)CCN(C)C [Compound 99, N-(5-(4-(4-methoxyl-1H-indol-1-yl)-pyrimidin-2-ylamino)-2-(2-(dimethylamino-ethyl)-methyl-amino)-4-methoxyl-phenyl)-acrylamide]				
> 0.5	> 1	> 1	> 1	0.0126	0.375	> 1		C=CC(=O)Nc1cc(Nc2nccc(Nc3cccc(Cl)c3)n2)c(OC)cc1N(C)CCN(C)C [Compound 2, N-(5-(4-(3-chloro-phenylamino)-pyrimidin-2-ylamino)-2-(2-(dimethylamino-ethyl)-methyl-amino)-4-methoxyl-phenyl)-acrylamide]		0.006		> 1
							0.00096	C=CC(=O)Nc1cc(Nc2cc(Nc3cc(F)c(OC)c(Cl)c3)ncn2)c(OC)cc1N(C)CCN(C)C [Compound 236, N-(5-(6-(3-chloro-5-fluoro-4-methoxyphenylamino)-pyrimidin-4-yl-amino)-2-((2-dimethylamino-ethyl)-methyl-amino)-4-methoxyl-phenyl)-acrylamide]				
> 0.5	> 1	> 1	> 1	0.0048	0.0265	> 1		C=CC(=O)Nc1cc(Nc2cc(Nc3ccc(F)c(Cl)c3)ncn2)c(OC)cc1N1CCN(C2CCN(C)CC2)CC1 [Compound 147, N-(5-(6-(3-chloro-4-fluoro-phenylamino)-pyrimidin-4-ylamino)-4-methoxyl-2-(4-(1-methylpiperidin-4-yl)-piperazin-1-yl)-phenyl)-acrylamide]		0.0015		> 1
							0.0195	C=CC(=O)Nc1cc(Nc2cc(Nc3ccc(OCC4CCOCC4)c(Cl)c3)ncn2)c(OC)cc1N(C)CCN(C)C [Compound 216, N-(5-(6-(3-chloro-4-(tetrahydropyran-4-yl-methoxyl)-phenylamino)-pyrimidin-4-ylamino)-2-((2-dimethylaminoethyl)-methyl-amino)-4-methoxyphenyl)-acrylamide]				
							0.00152	C=CC(=O)Nc1cc(Nc2nccc(-n3ccc4c(OCCOC)cccc43)n2)c(OC)cc1N(C)CCN(C)C [Compound 205, N-(5-(4-(4-(2-methoxyl-ethoxyl)-1H-indol-1-yl)-pyrimidin-2-ylamino)-2-(2-(dimethylamino-ethyl)-methyl-amino)-4-methoxyl-phenyl)-acrylamide]				
							0.00732	C=CC(=O)Nc1cc(Nc2cc(Nc3cc(OC)c(Cl)cc3Cl)ncn2)c(OC)cc1N(C)CCN(C)C [Compound 136, N-(5-(6-(2,4-dichloro-5-methoxyl-phenylamino)-pyrimidin-4-ylamino)-2-((2-dimethylamino-ethyl)-methyl-amino)-4-methoxyl-phenyl)-acrylamide]				
> 0.5	> 1	> 1	> 1	0.0048	0.0375	> 1		C=CC(=O)Nc1cc(Nc2ncnc(Nc3cccc(F)c3)n2)c(OC)cc1N(C)CCN(C)C [Compound 114, N-(5-(4-(3-fluoro-phenylamino)-[1,3,5]triazin-2-ylamino)-2-((2-dimethylamino-ethyl)-methyl-amino)-4-methoxyl-phenyl)-acrylamide]		0.0011		< 0.1
> 0.5	> 1	> 1	> 1	0.0094	0.375	> 1		C=CC(=O)Nc1cc(Nc2nccc(-n3cnc4ccccc43)n2)c(OC)cc1N(C)CCN(C)C [Compound 106]		0.012		> 1
> 0.5	> 1	> 1	> 1	0.0048	0.0265	> 1		C=CC(=O)Nc1cc(Nc2cc(Nc3ccc(F)c(Cl)c3)ncn2)c(OC)cc1N(C)CCN(C)C [Compound 140, N-(5-(6-(3-chloro-4-fluoro-phenylamino)-pyrimidin-4-ylamino)-2-((2-dimethylamino-ethyl)-methyl-amino)-4-methoxyl-phenyl)-acrylamide]		0.0015		> 1
> 0.5	> 1	> 1	> 1	0.0125	0.156	> 1		C=CC(=O)Nc1cc(Nc2cc(-c3cn(C(C)C)c4ccccc34)ncn2)c(OC)cc1N(C)CCN(C)C [Compound 183]		0.006		> 1

SMILES	GI50 (H2228 (EML4-ALK)) [µM]	GI50 (SH-SY5Y (ALK F1174L)) [µM]	GI50 (SNU-16 (FGFR2 amp)) [µM]	GI50 (H1581 (FGFR1 amp)) [µM]	GI50 (H2170 (Her2 amp)) [µM]	GI50 (HCC1954 (Her2 amp)) [µM]	GI50 [1, 3] [µM]	GI50 [2, 4] [µM]	GI50 [1] [µM]	GI50 (ZR-75-30 (Her2 amp)) [µM]	GI50 ([2]; NCI-H1781, read-out: GI50 H1781 (HER2 G776VC)) [µM]	GI50 (Kasumi-1 (Kit N822K)) [µM]
C=CC(=O)Nc1cc(Nc2nccc(-c3cn(C)c4ccccc34)n2)c(OC)cc1N(C)CCN(C)C [AZD9291, reference compound]	> 0.5	> 1	> 1	> 1	0.117	> 1			> 1	0.031	0.195	> 1
